From ChEMBL document CHEMBL5209577, “Flow cytometry transport assay for SLC2A1 using HEK293 JumpIN TRex SLC2A1 WT-OE cells” (2022)

Target: T1, Solute carrier family 2, facilitated glucose transporter member 1 (Homo sapiens, UniProt P11166)
T1 sequence (P11166 whole entry): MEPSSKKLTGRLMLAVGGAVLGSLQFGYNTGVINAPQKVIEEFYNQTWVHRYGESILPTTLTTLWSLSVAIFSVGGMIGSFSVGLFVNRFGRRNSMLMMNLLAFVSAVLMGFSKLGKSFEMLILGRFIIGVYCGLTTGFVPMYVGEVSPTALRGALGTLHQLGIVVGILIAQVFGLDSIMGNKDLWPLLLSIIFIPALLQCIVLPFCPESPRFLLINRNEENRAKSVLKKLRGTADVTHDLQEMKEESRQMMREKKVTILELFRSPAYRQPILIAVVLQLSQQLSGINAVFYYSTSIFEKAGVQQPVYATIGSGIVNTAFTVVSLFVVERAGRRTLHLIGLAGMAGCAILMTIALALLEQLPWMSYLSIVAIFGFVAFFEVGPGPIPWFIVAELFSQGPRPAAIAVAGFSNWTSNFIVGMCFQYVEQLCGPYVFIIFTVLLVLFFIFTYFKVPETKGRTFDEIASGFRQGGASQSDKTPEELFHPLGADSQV
Assay: Inhibition of the Glucose Transporter (GLUT1, SLC2A1) as assessed by a FRET based flow cytometry assay using a genetically-encoded biosensor for measuring free glucose (FLII12Pglu-700uDelta6) in HEK293 JumpIN TRex SLC2A1 WT-OE cells (PubChem AID: 1794830)
Type: functional, cell-based

IC50	EC50	Compound
> 10 µM		O=C(Oc1cccc(F)c1OC(=O)c1cccc(O)c1)c1cccc(O)c1
	527 µM	OC[C@H]1OC(O)[C@H](O)[C@@H](O)[C@@H]1O (some centres not stated) [DEXTROSE]
